# Reference: patent US7812039B2, “Drugs for chronic pains” (Nicox S.A., priority 2001, dated 2010)
# What was measured:
# Washed human platelets = test: NO generation from NO-donors with platelets, chemiluminescence; format: cell-based; conditions: incubation of 100 μM, 5 minutes
# Method: (§1) The test relates to the nitric oxide generation from the NO-donors, for example nitroglycerin, niocorandil, nitroprussiate, etc., in the presence of endothelial cells (method a) or platelets (method b). • a) Endothelial Cells • Human cells of the umbilical vein, cultured on plates, having a 10^3 density cells/well were incubated for 5 minutes with scalar concentrations of NO-donor (1-100 μg/ml). The incubation medium (physiologic solution, for example Tyrode) was then analyzed to determine the capability to generate NO of the compound under test, by means of: • 1) nitric oxide detection by chemiluminescence; • 2) cGMP determination (cyclic GMP n° 2715 of the above mentioned Merck). • For the analysis by chemiluminescence, an amount equal to 100 μl was injected in the reaction chamber of a chemiluminescence analyzer containing glacial acetic acid and potassium iodide. The nitrites/nitrates present in the medium, under these conditions are converted into NO which is then detected after reaction with ozone, which produces light. In the equipments which measure the chemiluminescence, the luminescence produced is directly proportional to the generated NO levels and can be measured by a suitable photomultiplying unit of a chemiluminescence analyzer. The photomultiplier converts the incident light in electric voltage, which is quantitatively recorded. […]
# [1] = tested on: Human cells of the umbilical vein; test: NO generation from NO-donors with endothelial cells, chemiluminescence; format: cell-based; conditions: incubation of 100 μM, 5 minutes
# Method: as §1
compound,measurement,setting,value
O=C(NCCO[N+](=O)[O-])c1cccnc1 [nicorandil],amount of NO generated,Washed human platelets,35 µM
same,amount of NO generated,[1],about 10 μM
